Results published in patent publication US12622912B2, “Application of pyrido[1,2-a]pyrimidinone analog” (GUANGZHOU JOYO PHARMATECH CO., LTD, priority 2021, dated 2026).
Read-outs that look alike come from different tables or passages of the source.

Legend:
[1] = system: BT-474 PIK3CA-mutated breast cancer cell line; experiment: CTG cell proliferation, BT-474; type: cell-based, human; conditions: BT-474, CTG, 72 hours, read-out: Absolute IC50
Excerpt: (2) Reagents • 1) FBS (fetal bovine serum) (purchased from ExCell, product number: FND500); • 2) DMEM medium (purchased from Gibco, product number: C11995500BT); • 3) Insulin (purchased from Gibco, product number: EPX010-12003-901); • 4) RPMI1640 medium (purchased from Hyclone, product number: SH30809.01); • 5) MEM medium (purchased from Hyclone, product number: SH30024.01). (3) Test Article and Positive Control Article • Test article: compound I; • Positive control article: Cisplatin, Molecular weight: 300.05; Solvent: PBS (phosphate buffer saline); Storage condition: 2-8° C.; Supplier: Qilu Pharmaceutical. (4) The CTG Method was Used to Determine the Cell Proliferation IC50 of the Compound.
(§1) Step 1: Cells in exponential growth phase were harvested, and viable cells were counted with a Vi-Cell XR cytometer. The cell suspension was adjusted to an appropriate concentration with medium. 90 μL of cell suspension was added to each well of a 96-well cell culture plate, and the final cell concentration was 1500-6000 cells/well.
Step 2: The initial concentration of administration of compound I was 3 μM, and the initial concentration of administration of the control drug Cisplatin was 100 μM, and serially diluted 3-fold, a total of 9 concentration gradients and a DMSO control, the final concentration of DMSO in each well was 0.1%, placed in a 37° C., 5% CO2 incubator for 72 hours.
(§2) Step 3: After 72 hours of drug treatment, 50 μL (½ culture volume) CTG solution that was melted and equilibrated to room temperature was added to each well according to the CTG operation instruction. […] After 10 minutes, the fluorescence signal value was measured with an Envision2104 plate reader.
(§3) Cell survival rate was calculated using the formula: Vsample/Vvehicle control×100%. Where, Vsample was the reading of the drug treatment group, and Vvehicle control was the average value of the solvent control group. GraphPad Prism 5.0 software was used, and a S-type dosage-survival rate curve was drawn using a nonlinear regression model and IC50 value was calculated.

[2] = system: PIK3CA-mutated cervical cancer cells; experiment: CTG cell proliferation, cervical cancer cell lines; type: cell-based; conditions: across PIK3CA-mutated cervical cancer cell lines, 72 hours, Alpelisib: in two cell lines, read-out: half inhibitory concentration
Excerpt: (2) Reagents • 1) FBS (fetal bovine serum) (purchased from ExCell, product number: FND500); • 2) RPMI1640 medium (purchased from Hyclone, product number: SH30809.01); • 3) McCoy's 5A medium (purchased from Gibco, product number: 12330-031); • 4) MEM medium (purchased from Hyclone, product number: SH30024.01; • 5) MEM NEAA (purchased from Gibco, product number: 11140-050); • 6) Sodium pyruvate (purchased from Gibco). […]
Step 1: Cells in exponential growth phase were harvested, and viable cells were counted with a Vi-Cell XR cytometer. […]
as §2, §3

[3] = system: human breast cancer BT-474 subcutaneous xenograft tumor; experiment: In vivo efficacy, BT-474 subcutaneous xenograft tumor model; design: species or system BALB/c nude mice; conditions: oral, once a day for 20 days; for Tumor volume (Day 20): Mean ± SEM; for T/C / TGI: day 20, vs Solvent 2
Protocol: Experimental purpose: Study the in vivo efficacy of the test drug on human breast cancer BT-474 subcutaneous xenograft tumor BALB/c nude mouse model.
(1) Cell culture: human breast cancer BT-474 cells were monolayer cultured in vitro. The culture conditions were that 10% fetal bovine serum, 100 U/ml penicillin (purchased from Gibco) and 100 μg/ml chain Mycin (purchased from Gibco) were added to Hybri-Care medium, and cultured at 37° C. and 5% CO2. Routine digestion and passage were performed with trypsin-EDTA (purchased from Gibco, product number: 25200-072) twice a week. When the cell saturation was 80%-90%, the cells are harvested, counted and inoculated.
(2) Animals: BALB/c nude mice, female, 6 weeks old, weighing 16-18 grams. Provided by Shanghai Sippe-Bk Lab Animal Co., Ltd.
(3) Control article: • Both PF05212384 and Everolimus were purchased from Shanghai TOPSCIENCE Biochemical Technology Co., Ltd.
(4) Tumor inoculation: 0.2 ml (1×10^7) BT-474 cells (matrigel was added, volume 1:1) were subcutaneously inoculated on the right back of each mouse, and the mice were divided into groups and administered with drugs when the average tumor volume reached 122 mm^3. See Table 10 below for the experimental grouping and dosing regimen.

[4] = system: Ca Ski PIK3CA-mutated cervical cancer cell line; experiment: CTG cell proliferation, Ca Ski; type: cell-based; conditions: Homo sapiens, 72 hours, read-out: Absolute IC50
Excerpt: (2) Reagents • 1) FBS (fetal bovine serum) (purchased from ExCell, product number: FND500); • 2) RPMI1640 medium (purchased from Hyclone, product number: SH30809.01); • 3) McCoy's 5A medium (purchased from Gibco, product number: 12330-031); • 4) MEM medium (purchased from Hyclone, product number: SH30024.01; • 5) MEM NEAA (purchased from Gibco, product number: 11140-050); • 6) Sodium pyruvate (purchased from Gibco). (3) Test Article and Positive Control Article • Test article: compound I; Positive Control Article: • 1) Alpelisib, molecular weight: 441.47; solvent: DMSO; storage condition after dissolution: −20° C.; supplier: Shanghai TOPSCIENCE Biochemical Technology Co., Ltd., CAS number: 1217486-61-7; • 2) Cisplatin, molecular weight: 300.05; solvent: PBS (phosphate buffer saline); storage condition: 2-8° C.; supplier: Qilu Pharmaceutical. (4) The CTG Method was Used to Determine the Cell Proliferation IC50 of the Compound
as §1, with “cells/well. […]” for “cells/well.”
as §2, §3

[5] = system: HEC-1-B PIK3CA-mutated endometrial cancer cell line; experiment: CTG cell proliferation, HEC-1-B; type: cell-based; conditions: read-out: Absolute IC50
Protocol: (2) Reagents • 1) FBS (fetal bovine serum) (purchased from ExCell, product number: FND500); • 2) McCoy's 5A medium (purchased from Gibco, product number: 12330-031); • 3) MEM medium (purchased from Hyclone, product number: SH30024.01). (3) Test Article and Positive Control Article • Test article: compound I; • Positive control article: Alpelisib, molecular weight: 441.47; solvent: DMSO; storage condition after dissolution: −20° C.; supplier: Shanghai TOPSCIENCE Biochemical Technology Co., Ltd., CAS number: 1217486-61-7; (4) The CTG Method was Used to Determine the Cell Proliferation IC50 of the Compound
as §1
Step 2: The initial concentration of administration of compound I and the control drug Alpelisib was 3 μM, serially diluted 3-fold, a total of 9 concentration gradients and a DMSO control, the final concentration of DMSO in each well was 0.1%, placed in a 37° C., 5% CO2 incubator for 72 hours.
Step 3: After 72 hours of drug treatment, 50 μL (½ culture volume) CTG solution that was melted and equilibrated to room temperature was added to each well according to the CTG operation instruction. The solution was mixed well with a microplate shaker for 2 minutes, and placed at room temperature. After 10 minutes, the fluorescence signal value was measured with an Envision2104 plate reader.
as §3

IC50 ([1]; listed as compound I): < 1000 nM
IC50 [1]: 21 nM
IC50 [2]: 15 to 180 nM
IC50 [4]: 39 nM
IC50 ([5]; 72 hours): 52 nM
IC50 ([5]; Homo sapiens, HEC-1B, 72 h): ≤ 100 nM
Structure (SMILES): COCCOc1cnc2ccc(-c3cnc(OC)c(NS(=O)(=O)c4sc(C)nc4C)c3)cn2c1=O [Compound I]
Tumor volume (Day 20) ([3]; 0.05 mg/kg): 194 ± 49 mm^3
T/C ([3]; 0.05 mg/kg): 44%
TGI ([3]; 0.05 mg/kg): 77%
Tumor volume (Day 20) ([3]; 0.1 mg/kg): 94 ± 12 mm^3
T/C ([3]; 0.1 mg/kg): 23%
TGI ([3]; 0.1 mg/kg): 109%
Tumor volume (Day 20) ([3]; 0.3 mg/kg): 68 ± 8 mm^3
T/C ([3]; 0.3 mg/kg): 16%
TGI ([3]; 0.3 mg/kg): 118%
